Patent US20200207734A1, “HETEROCYCLIC COMPOUND AND USE THEREOF” (Takeda Pharmaceutical Company Limited, priority 2017, published 2020)

Molecular target: T1, human orexin type 2 receptor (Homo sapiens, UniProt O43614)
T1 construct: human orexin type 2 receptor cDNA was inserted into pcDNA3.1(+) plasmid vector (Invitrogen); expressed in transfected cells
T1 sequence (O43614 1-444): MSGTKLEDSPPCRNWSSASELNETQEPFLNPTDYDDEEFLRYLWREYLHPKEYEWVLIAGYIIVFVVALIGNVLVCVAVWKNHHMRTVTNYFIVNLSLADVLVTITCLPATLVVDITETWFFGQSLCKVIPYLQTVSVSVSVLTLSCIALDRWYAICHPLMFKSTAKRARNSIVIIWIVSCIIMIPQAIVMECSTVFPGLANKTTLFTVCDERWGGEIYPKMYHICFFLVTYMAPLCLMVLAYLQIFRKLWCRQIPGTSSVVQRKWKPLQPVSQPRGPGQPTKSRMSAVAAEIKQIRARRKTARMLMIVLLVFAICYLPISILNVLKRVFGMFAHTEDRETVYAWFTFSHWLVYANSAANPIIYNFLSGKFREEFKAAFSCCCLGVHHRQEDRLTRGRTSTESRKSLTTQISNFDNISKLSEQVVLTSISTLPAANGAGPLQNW
Experiment: Measurement of orexin type 2 receptor agonist activity (calcium fluorescence, CHO cells expressing hOX2R)
Assay type: cell-based
Details: test compound 3 μM; CHO cells expressing human OX2 receptor; DMSO = 0%, orexin A (human) = 100%
Summary of the method: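 CHO-dhfr cells stably expressing hOX2R, loaded with Fluo-4 AM in HBSS/20 mM HEPES/0.1% BSA with probenecid, then given test compound. Calcium fluorescence was read for about 2 min 40 sec. Activity (%) was scaled between DMSO (0%) and 10 nM final human orexin A (100%).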

SMILES | OX2R agonist activity (3 μM, %)
CS(=O)(=O)N[C@H]1CCN(C(=O)N2CC(F)(F)C2)[C@H]1Cc1cccc(-c2cccc(F)c2)c1 [Example 342, N-((2S,3S)-1-((3,3-difluoroazetidin-1-yl)carbonyl)-2-((3′-fluorobiphenyl-3-yl)methyl)pyrrolidin-3-yl)methanesulfonamide] | 109%
CCNC(=O)N1CCC[C@H](NS(C)(=O)=O)[C@@H]1Cc1cccc(-c2ccc(C(F)(F)F)cc2)c1 (relative stereo) [Example 35, cis-N-ethyl-3-((methylsulfonyl)amino)-2-((4′-(trifluoromethyl)biphenyl-3-yl)methyl)piperidine-1-carboxamide] | 41%
CC1(C(=O)N2CC[C@H](NS(C)(=O)=O)[C@@H]2Cc2cccc(-c3cccc(F)c3)c2F)CC1 [Example 351, N-((2S,3S)-2-((2,3′-difluorobiphenyl-3-yl)methyl)-1-((1-methylcyclopropyl)carbonyl)pyrrolidin-3-yl)methanesulfonamide] | 106%
CCS(=O)(=O)N[C@H]1CCN(C(=O)C(C)(C)O)[C@H]1Cc1cccc(-c2cccc(Cl)c2)c1F [Example 431, N-((2S,3S)-2-((3′-chloro-2-fluorobiphenyl-3-yl)methyl)-1-(2-hydroxy-2-methylpropanoyl)pyrrolidin-3-yl)ethanesulfonamide] | 101%
CC(C)OC(=O)N1CCC[C@H](NS(=O)(=O)N(C)C)[C@@H]1Cc1cccc(-c2ccccc2)n1 (relative stereo) [Example 185, isopropyl cis-3-((dimethylsulfamoyl)amino)-2-((6-phenylpyridin-2-yl)methyl)piperidine-1-carboxylate] | 99%
CC(C)(C)C(=O)N1CC[C@H](NS(C)(=O)=O)[C@@H]1Cc1cccc(-c2ccccc2)c1 (relative stereo) [Example 227, N-(cis-2-(biphenyl-3-ylmethyl)-1-(2,2-dimethylpropanoyl)pyrrolidin-3-yl)methanesulfonamide] | 99%
CCS(=O)(=O)N[C@H]1CCN(C(=O)C2CCC2)[C@H]1Cc1cccc(-c2ccccc2)c1 [Example 471, N-[(2S,3S)-2-[([1,1′-biphenyl]-3-yl)methyl]-(cyclobutanecarbonyl)pyrrolidin-3-yl]ethanesulfonamide] | 116%
COC(=O)N1CCC[C@H](NS(C)(=O)=O)[C@@H]1Cc1cccc(N2CCCC2)c1 (relative stereo) [Example 27, methyl cis-3-((methylsulfonyl)amino)-2-(3-(pyrrolidin-1-yl)benzyl)piperidine-1-carboxylate] | 66%
CS(=O)(=O)N[C@H]1CCN(C(=O)OC2CC2)[C@H]1Cc1cccc(-c2ccccc2)c1 (relative stereo) [Example 108, cyclopropyl cis-2-(biphenyl-3-ylmethyl)-3-((methylsulfonyl)amino)pyrrolidine-1-carboxylate] | 69%
CC(C)(O)C(=O)N1CC[C@H](NS(=O)(=O)C2(F)CC2)[C@@H]1Cc1cccc(-c2cc(F)cc(F)c2)c1F [Example 480, 1-fluoro-N-{(2S,3S)-1-(2-hydroxy-2-methylpropanoyl)-2-[(2,3′,5′-trifluoro[1,1′-biphenyl]-3-yl)methyl]pyrrolidin-3-yl}cyclopropane-1-sulfonamide] | 113%
CC(C)C(=O)N1CC[C@H](NS(C)(=O)=O)[C@@H]1Cc1cccc(-c2ccccc2)c1F (relative stereo) [Example 293, N-(cis-2-((2-fluorobiphenyl-3-yl)methyl)-1-isobutyrylpyrrolidin-3-yl)methanesulfonamide] | 102%
CC(C)(O)C(=O)N1CC[C@H](NS(=O)(=O)CF)[C@@H]1Cc1cccc(-c2cc(F)cc(F)c2)c1F [Example 423, 1-fluoro-N-((2S,3S)-1-(2-hydroxy-2-methylpropanoyl)-2-((2,3′,5′-trifluorobiphenyl-3-yl)methyl)pyrrolidin-3-yl)methanesulfonamide] | 109%
CCS(=O)(=O)N[C@H]1CCN(C(=O)C2(C)CCC2)[C@H]1Cc1csc(-c2cc(F)cc(F)c2)n1 (relative stereo) [Example 316, N-(cis-2-((2-(3,5-difluorophenyl)-1,3-thiazol-4-yl)methyl)-1-((1-methylcyclobutyl)carbonyl)pyrrolidin-3-yl)ethanesulfonamide] | 104%
O=C(C1CCC1)N1CC[C@H](NS(=O)(=O)C2CC2)[C@@H]1Cc1csc(-c2ccccc2)n1 (relative stereo) [Example 259, N-(cis-1-(cyclobutylcarbonyl)-2-((2-phenyl-1,3-thiazol-4-yl)methyl)pyrrolidin-3-yl)cyclopropanesulfonamide] | 95%
CC(C)(O)C(=O)N1CC[C@H](NS(=O)(=O)C2(F)CC2)[C@@H]1Cc1cccc(-c2ccccc2)c1F [Example 479, 1-fluoro-N-[(2S,3S)-2-[(2-fluoro[1,1′-biphenyl]-3-yl)methyl]-1-(2-hydroxy-2-methylpropanoyl)pyrrolidin-3-yl] cyclopropane-1-sulfonamide] | 103%

Results, then the molecule that gave them:

OX2R agonist activity (3 μM, %) | SMILES
98% | CS(=O)(=O)N[C@H]1CCN(C(=O)N2CC(F)C2)[C@H]1Cc1cccc(-c2cccc(F)c2)c1 [Example 341, N-((2S,3S)-1-((3-fluoroazetidin-1-yl)carbonyl)-2-((3′-fluorobiphenyl-3-yl)methyl)pyrrolidin-3-yl)methanesulfonamide]
99% | CS(=O)(=O)N[C@H]1CCN(C(=O)C2CCO2)[C@H]1Cc1cccc(-c2cc(F)cc(F)c2)c1F (stereo partly drawn) [Example 441, N-{(2S,3S)-1-(oxetane-2-carbonyl)-2-[(2,3′,5′-trifluoro[1,1′-biphenyl]-3-yl)methyl]pyrrolidin-3-yl}methanesulfonamide]
99% | CS(=O)(=O)N[C@H]1CCN(C(=O)C2CCC2)[C@H]1Cc1cccc(-c2cccc(F)c2)c1F [Example 350, N-((2S,3S)-1-(cyclobutylcarbonyl)-2-((2,3′-difluorobiphenyl-3-yl)methyl)pyrrolidin-3-yl)methanesulfonamide]
104% | CS(=O)(=O)N[C@H]1CCN(C(=O)C2CCO2)[C@H]1Cc1cccc(-c2cccc(F)c2)c1 (stereo partly drawn) [Example 328, N-((2S,3S)-2-((3′-fluorobiphenyl-3-yl)methyl)-1-(oxetan-2-ylcarbonyl)pyrrolidin-3-yl)methanesulfonamide]
97% | CS(=O)(=O)N[C@H]1CCN(C(=O)C2CCC2)[C@H]1Cc1cccc(-c2ccccc2)c1 [Example 261, N-((2S,3S)-2-(biphenyl-3-ylmethyl)-1-(cyclobutylcarbonyl)pyrrolidin-3-yl)methanesulfonamide]
99% | CS(=O)(=O)N[C@H]1CCN(C(=O)C2CCC2)[C@H]1Cc1cc(F)cc(-c2cccc(F)c2)c1 (relative stereo) [Example 300, N-(cis-1-(cyclobutylcarbonyl)-2-((3′,5-difluorobiphenyl-3-yl)methyl)pyrrolidin-3-yl)methanesulfonamide]
106% | CC(C)(O)C(=O)N1CC[C@H](NS(=O)(=O)CF)[C@@H]1Cc1cccc(-c2cc(F)cc(F)c2)c1 [Example 421, N-((2S,3S)-2-((3′,5′-difluorobiphenyl-3-yl)methyl)-1-(2-hydroxy-2-methylpropanoyl)pyrrolidin-3-yl)-1-fluoromethanesulfonamide]
